In brackets after ≈: the same amount, converted by molar mass. Entries after “also recorded” stand apart in the source; their conditions may differ. Read-outs that look alike come from different tables or passages of the source.
Assays:
hygroscopicity by DVS = assay type: physicochemical
Experimental: Hygroscopicity of Freeform Form A, HCl Form A, Besylate Form B, and Gentisate Form A was evaluated by DVS.

[1] = solid state stability: storage at 25° C./60% RH and 40° C./75% RH for 1 week, XRPD and HPLC purity; assay type: physicochemical; settings: for Purity (area %): HPLC purity; for Form change: XRPD; for HPLC purity change after storage: 40° C./75% RH for 1 week
Experimental: For XRPD analysis, Empyrean X-ray powder diffractometer from Malvern Panalytical was used. Sample was spread on the middle of a zero-background Si holder.
XRPD and HPLC purity was performed for stability samples to assess the physical and chemical stability.

[2] = target: sodium-dependent serotonin transporter (SERT) (Homo sapiens, UniProt P31645); settings: reported for the naturally occurring compound from Sceletium tortuosum; cited from earlier work
Sequence of sodium-dependent serotonin transporter (SERT) (P31645 whole entry, species assumed): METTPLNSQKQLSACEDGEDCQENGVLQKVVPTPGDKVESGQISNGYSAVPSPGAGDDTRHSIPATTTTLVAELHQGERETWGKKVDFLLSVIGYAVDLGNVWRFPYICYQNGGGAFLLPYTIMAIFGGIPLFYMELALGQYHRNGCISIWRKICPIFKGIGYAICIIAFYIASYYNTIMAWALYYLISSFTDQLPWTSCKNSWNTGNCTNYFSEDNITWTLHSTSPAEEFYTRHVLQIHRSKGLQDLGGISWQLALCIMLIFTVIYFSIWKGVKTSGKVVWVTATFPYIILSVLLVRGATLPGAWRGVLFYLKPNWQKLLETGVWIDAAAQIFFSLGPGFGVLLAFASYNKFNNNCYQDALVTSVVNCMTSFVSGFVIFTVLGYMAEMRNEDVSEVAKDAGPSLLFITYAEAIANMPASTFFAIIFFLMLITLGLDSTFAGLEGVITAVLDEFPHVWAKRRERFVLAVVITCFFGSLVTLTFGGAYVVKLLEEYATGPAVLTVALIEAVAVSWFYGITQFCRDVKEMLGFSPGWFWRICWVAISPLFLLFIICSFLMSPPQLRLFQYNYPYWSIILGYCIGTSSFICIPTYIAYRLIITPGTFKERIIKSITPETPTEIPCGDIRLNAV

[3] = kinetic solubility in H2O and bio-relevant media (SGF, FaSSIF, FeSSIF) at 37° C.; assay type: physicochemical; settings: thermodynamic from solid; for solubility: 37 °C, read-out: observed solubility; for solubility kinetic / solubility at 1 h / solubility at 2 h / solubility at 4 h / solubility at 24 h: 37° C.; for solubility kinetic: at 1, 2, 4 and 24 hrs; for solubility at 1 h / solubility at 2 h / solubility at 4 h / solubility at 24 h: read-out: S: Solubility (mg/mL), calculated by freebase
Experimental: • 1. Add about 40 mg of samples and 4 mL of corresponding medium into a 5-mL glass vial. The loading concentration was ˜10 mg/mL (calculated by freebase). • 2. Roll at 37° C. (˜25 rpm). Sample at 1, 2, 4 and 24 hrs. • 3. At each time-point, sample 0.8 mL of solution or suspension into a centrifuge tube prior to centrifugation (12000 rpm, 37° C., 5 min) and filtration through 0.45 μm PTFE membrane. • 4. Test pH and concentration for the filtrate. Analyze residual solids by XRPD.

[4] = solubility of Freeform Form A in solvents; assay type: physicochemical
Source text: Freeform Form A was a gum material. The material had the solubility shown below:

For `COc1ccc([C@@]23CCC(=O)C[C@@H]2N(C)CC3)cc1OC.O=S(=O)(O)c1ccccc1` [Besylate Form B], the “Water uptake at 25° C./80% RH (wt %)” value (hygroscopicity by DVS; DVS) was 0.32 wt %, the “water uptake at 25° C./80% RH” value (hygroscopicity by DVS; DVS) was 0.32% and the “Form change by XRPD after DVS test” value (hygroscopicity by DVS) was “No form change and No”. The “form change by XRPD after storage” value ([1]; 25° C./60% RH/open/1 week) was “no form change”, the “Purity (area %)” value ([1]; 25° C./60% RH/open/1 week) was 97.16 area % and the Form change ([1]; 25° C./60% RH/open/1 week) was “No”. The “HPLC purity change after storage” value [1] was “slight purity decrease”, the “form change by XRPD after storage” value ([1]; 40° C./75% RH/open/1 week) was “no form change” and the “Purity (area %)” value ([1]; 40° C./75% RH/open/1 week) was 97.12 area %. The Form change ([1]; 40° C./75% RH/open/1 week) was “No” and the “Purity (area %)” value ([1]; Initial) was 97.21 area %.

In the case of `COc1ccc([C@@]23CCC(=O)C[C@@H]2N(C)CC3)cc1OC` [Compound 1, 3a-(3,4-dimethoxyphenyl)-octahydro-1-methyl-6H-indol-6-one], the “serotonin (5-HT) uptake inhibitory activity” value [2] is listed as “serotonin (5-HT) uptake inhibitory activity”.

With `COc1ccc([C@@]23CCC(=O)C[C@@H]2N(C)CC3)cc1OC` [Freeform Form A] the “Form change by XRPD after DVS test” value (hygroscopicity by DVS) was “amorphous; also recorded: Amorphous*”, the “behaviour during DVS test” value (hygroscopicity by DVS; during DVS test) was “deliquesced” and the solubility ([3]; simulated gastric fluid, in SGF) was > 8300 µg/mL. For the same compound, the solubility ([3]; in FaSSIF) was > 8300 µg/mL, the solubility ([3]; in FeSSIF) was > 8300 µg/mL and the solubility ([3]; water, in H2O) was > 8300 µg/mL. The solubility kinetic ([3]; simulated gastric fluid, SGF) was > 8300 µg/mL, the solubility at 1 h ([3]; simulated gastric fluid, SGF) was > 8.6 mg/mL and the solubility at 2 h ([3]; simulated gastric fluid, SGF) was > 9.2 mg/mL. The solubility at 4 h ([3]; simulated gastric fluid, SGF) was > 8.4 mg/mL, the solubility at 24 h ([3]; simulated gastric fluid, SGF) was > 8.7 mg/mL and the solubility kinetic ([3]; FaSSIF) was > 8300 µg/mL. The solubility at 1 h ([3]; FaSSIF) was > 8.7 mg/mL, the solubility at 2 h ([3]; FaSSIF) was > 8.7 mg/mL and the solubility at 4 h ([3]; FaSSIF) was > 8.3 mg/mL. The solubility at 24 h ([3]; FaSSIF) was > 8.5 mg/mL, the solubility kinetic ([3]; FeSSIF) was > 8300 µg/mL and the solubility at 1 h ([3]; FeSSIF) was > 8.7 mg/mL. For the same compound, the solubility at 2 h ([3]; FeSSIF) was > 9.8 mg/mL, the solubility at 4 h ([3]; FeSSIF) was > 9.1 mg/mL and the solubility at 24 h ([3]; FeSSIF) was > 9.9 mg/mL. The solubility kinetic ([3]; water, H2O) was > 8300 µg/mL, the solubility at 1 h ([3]; water, H2O) was > 9.1 mg/mL and the solubility at 2 h ([3]; water, H2O) was > 9.3 mg/mL. For the same compound, the solubility at 4 h ([3]; water, H2O) was > 9.4 mg/mL, the solubility at 24 h ([3]; water, H2O) was > 9.3 mg/mL and the “form change by XRPD after storage” value ([1]; 25° C./60% RH/open/1 week) was “amorphous”. For the same compound, the “Purity (area %)” value ([1]; 25° C./60% RH/open/1 week) was 98.14 area %, the Form change ([1]; 25° C./60% RH/open/1 week) was “Amorphous” and the “HPLC purity change after storage” value [1] was “slight purity decrease”. The “form change by XRPD after storage” value ([1]; 40° C./75% RH/open/1 week) was “amorphous”, the “Purity (area %)” value ([1]; 40° C./75% RH/open/1 week) was 98.01 area % and the Form change ([1]; 40° C./75% RH/open/1 week) was “Amorphous”. For the same compound, the “Purity (area %)” value ([1]; Initial) was 98.15 area %, the solubility ([4]; 1,4-Dioxane, organic solvent or mixture) was > 40000 µg/mL and the solubility ([4]; 2-MeTHF, organic solvent or mixture) was > 40000 µg/mL. For the same compound, the solubility ([4]; ACN, organic solvent or mixture) was > 44000 µg/mL, the solubility ([4]; Acetone, organic solvent or mixture) was > 40000 µg/mL and the solubility ([4]; CPME, organic solvent or mixture) was > 40000 µg/mL. The solubility ([4]; DCM, organic solvent or mixture) was > 42000 µg/mL, the solubility ([4]; EtOAc, organic solvent or mixture) was 19000 to 38000 µg/mL (≈ 65.7 to 131 mM) and the solubility ([4]; EtOH, organic solvent or mixture) was > 42000 µg/mL. For the same compound, the solubility ([4]; H2O, water) was > 42000 µg/mL, the solubility ([4]; IPA, organic solvent or mixture) was > 38000 µg/mL and the solubility ([4]; IPAc, organic solvent or mixture) was > 36000 µg/mL. The solubility ([4]; MIBK, organic solvent or mixture) was > 38000 µg/mL, the solubility ([4]; MTBE, organic solvent or mixture) was > 40000 µg/mL and the solubility ([4]; MeOH, organic solvent or mixture) was > 36000 µg/mL. For the same compound, the solubility ([4]; THF, organic solvent or mixture) was > 44000 µg/mL.

In the case of `COc1ccc([C@@]23CCC(=O)C[C@@H]2N(C)CC3)cc1OC.O=C(O)c1cc(O)ccc1O` [Gentisate Form A], the “Water uptake at 25° C./80% RH (wt %)” value (hygroscopicity by DVS; DVS) is reported as 0.17 wt %, the “water uptake at 25° C./80% RH” value (hygroscopicity by DVS; DVS) is reported as 0.17% and the “Form change by XRPD after DVS test” value (hygroscopicity by DVS) is reported as “No form change and No”. For the same compound, the “form change by XRPD after storage” value ([1]; 25° C./60% RH/open/1 week) was “no form change”, the “Purity (area %)” value ([1]; 25° C./60% RH/open/1 week) was 97.18 area % and the Form change ([1]; 25° C./60% RH/open/1 week) was “No”. For the same compound, the “HPLC purity change after storage” value [1] was “slight purity decrease”, the “form change by XRPD after storage” value ([1]; 40° C./75% RH/open/1 week) was “no form change” and the “Purity (area %)” value ([1]; 40° C./75% RH/open/1 week) was 97.11 area %. The Form change ([1]; 40° C./75% RH/open/1 week) was “No” and the “Purity (area %)” value ([1]; Initial) was 97.22 area %.

In the case of `COc1ccc(C23CCC(=O)CC2N(C)CC3)cc1OC.Cl` (stereo not shown) [HCl Form A], the “Water uptake at 25° C./80% RH (wt %)” value (hygroscopicity by DVS; DVS) is reported as 0.72 wt %, the “water uptake at 25° C./80% RH” value (hygroscopicity by DVS; DVS) is reported as 0.72% and the “water uptake at 95% RH” value (hygroscopicity by DVS; DVS, 95% RH) is reported as 18.46%. For the same compound, the “Form change by XRPD after DVS test” value (hygroscopicity by DVS) was “No form change”, the “Form change by XRPD after DVS test” value (hygroscopicity by DVS; listed as HCl salt Form A) was “No form change and No” and the “form change by XRPD after storage” value ([1]; 25° C./60% RH/open/1 week) was “no form change”. For the same compound, the “Purity (area %)” value ([1]; 25° C./60% RH/open/1 week) was 97.06 area %, the Form change ([1]; 25° C./60% RH/open/1 week) was “No” and the “HPLC purity change after storage” value [1] was “slight purity decrease”. For the same compound, the “form change by XRPD after storage” value ([1]; 40° C./75% RH/open/1 week) was “no form change”, the “Purity (area %)” value ([1]; 40° C./75% RH/open/1 week) was 97.00 area % and the Form change ([1]; 40° C./75% RH/open/1 week) was “No”. For the same compound, the “Purity (area %)” value ([1]; Initial) was 97.15 area %.

From patent US20250026718A1, “SOLID FORMS OF MESEMBRINE AND THERAPEUTIC USES THEREOF” (Sensorium Therapeutics, Inc., priority 2022, published 2025)
